Measurements: paper PMC7726444 (Frontiers in Pharmacology, 2020)
Like-named read-outs stand apart in the source and are kept apart here.

What was measured:
[1] = biological target: T1, doubly truncated TPH1 (ΔNH102-ΔCOOH402) (Homo sapiens, UniProt P17752); assay: Tryptophan hydroxylase enzymatic activity assay (HPLC quantification of 5-OH-Trp), doubly truncated TPH1; format: biochemical; settings: for IC50: doubly truncated TPH1, 20 µM L-Trp, 200 µM BH4, 37°C, mean (95% confidence interval), three experiments in duplicate; for fold less potent inhibitor of TPH1 than omeprazole: relative to omeprazole TPH1 IC50; for reduction of TPH1 activity: 100 µM compound, preliminary activity assay
T1 construct: The ΔNH102-ΔCOOH402 human TPH1 gene was cloned; six-His (C); made in house
T1 sequence (P17752 102-402, stated change not applied): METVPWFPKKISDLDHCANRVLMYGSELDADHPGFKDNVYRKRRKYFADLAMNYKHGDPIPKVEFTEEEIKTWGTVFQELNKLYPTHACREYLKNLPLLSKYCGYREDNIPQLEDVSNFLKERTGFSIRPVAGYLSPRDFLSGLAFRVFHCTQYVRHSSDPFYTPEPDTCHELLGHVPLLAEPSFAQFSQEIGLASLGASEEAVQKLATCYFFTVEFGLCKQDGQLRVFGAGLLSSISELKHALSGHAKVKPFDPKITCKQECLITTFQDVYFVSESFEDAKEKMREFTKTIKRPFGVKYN

[2] = biological target: T2, WT full-length TPH2 (Homo sapiens, UniProt Q8IWU9); assay: Tryptophan hydroxylase enzymatic activity assay, WT full-length TPH2; format: biochemical; settings: mean (95% confidence interval), three experiments in duplicate
T2 construct: both the doubly truncated TPH1 protein and WT full-length TPH2 protein; made in house
T2 sequence (Q8IWU9 1-490): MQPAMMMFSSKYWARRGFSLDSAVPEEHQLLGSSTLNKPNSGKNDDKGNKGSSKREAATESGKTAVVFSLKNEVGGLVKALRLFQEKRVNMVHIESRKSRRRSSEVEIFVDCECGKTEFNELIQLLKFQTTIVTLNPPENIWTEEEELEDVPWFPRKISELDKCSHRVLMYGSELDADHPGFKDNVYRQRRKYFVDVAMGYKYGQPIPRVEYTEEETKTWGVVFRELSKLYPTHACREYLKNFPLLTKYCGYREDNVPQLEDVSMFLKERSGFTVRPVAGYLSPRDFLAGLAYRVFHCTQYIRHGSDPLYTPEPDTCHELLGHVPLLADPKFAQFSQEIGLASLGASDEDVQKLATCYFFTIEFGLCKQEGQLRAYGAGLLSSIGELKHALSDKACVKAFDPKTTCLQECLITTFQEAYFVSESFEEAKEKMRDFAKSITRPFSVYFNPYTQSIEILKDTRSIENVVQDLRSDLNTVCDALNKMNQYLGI

[3] = biological target: T3, MAO-A (Homo sapiens, UniProt P21397); assay: MAO-A enzymatic activity assay (MAO-A Inhibitor Screening Kit, fluorimetric detection of H2O2); format: biochemical; settings: 25°C, 15 min kinetic read; mean (95% confidence interval), three experiments
T3 construct: purchased BioVision, Inc, Milpitas, CA
T3 sequence (P21397 1-527): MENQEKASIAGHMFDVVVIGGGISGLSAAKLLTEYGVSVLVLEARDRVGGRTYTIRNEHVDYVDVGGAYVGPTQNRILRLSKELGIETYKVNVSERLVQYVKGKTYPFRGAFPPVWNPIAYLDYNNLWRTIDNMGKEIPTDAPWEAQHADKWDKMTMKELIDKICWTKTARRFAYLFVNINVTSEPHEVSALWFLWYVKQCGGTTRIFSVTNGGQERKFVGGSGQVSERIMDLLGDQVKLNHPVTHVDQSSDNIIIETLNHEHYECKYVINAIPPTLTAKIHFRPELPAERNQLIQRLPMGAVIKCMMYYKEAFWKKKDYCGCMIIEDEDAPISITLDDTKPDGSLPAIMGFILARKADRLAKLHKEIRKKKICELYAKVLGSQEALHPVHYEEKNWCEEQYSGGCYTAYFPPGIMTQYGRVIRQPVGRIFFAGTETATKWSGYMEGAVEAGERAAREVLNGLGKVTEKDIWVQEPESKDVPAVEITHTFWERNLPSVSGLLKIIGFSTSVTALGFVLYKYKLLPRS
Protocol: The experiments were conducted following the manufacturer’s (BioVision, Inc, Milpitas, CA) instructions and were based on the fluorimetric detection of H2O2, a byproduct of the enzymatic activity of MAO-A, by measuring the fluorescence (Excitation/Emission at 535/587 nm) kinetically at 25°C for 15 min using a Tecan Spark plate reader (Tecan Group Ltd, Männedorf, Switzerland).
Relative inhibition of MAO-A was calculated as a percentage using the following Eq. 2: %Relative inhibition=((Slope of EC−Slope of S)/Slope of EC)×100 (2)
The slopes for all samples, either containing Enzyme Control (EC) or test substance (S), were calculated by dividing the net change in relative fluorescence units (ΔRFU; RFU2–RFU1) by the time interval (Δt; t2 –t1).

[4] = biological target: T3, MAO-A; design: method as in Petzer et al., 2013; settings: ref Petzer et al., 2013; cited from earlier work

| Structure (SMILES) | IC50 [1] | fold less potent inhibitor of TPH1 than omeprazole [1] | IC50 [2] | IC50 [3] | reduction of TPH1 activity [1] | IC50 [4] |
| --- | --- | --- | --- | --- | --- | --- |
| Cc1c(OCC(F)(F)F)ccnc1C[S@@+]([O-])c1nc2ccccc2[nH]1 [(R)-lansoprazole] | 18.8 µM | 6 fold | 3.36 µM | 137 µM |  |  |
| COc1ccnc(C[S+]([O-])c2nc3ccc(OC(F)F)cc3[nH]2)c1OC (stereo not drawn) [Pantoprazole] | 21.7 µM | 6 fold | 8.2 µM | 462 µM |  |  |
| CSc1nc2cc(Cl)c(Oc3cccc(Cl)c3Cl)cc2[nH]1 [triclabendazole] | ~100 µM |  |  |  | more than 50% |  |
| CC1CCc2cc(F)cc3c(=O)c(C(=O)O)cn1c23 (stereo not drawn) [flumequine] | ~100 µM |  |  |  | more than 50% |  |
| COc1ccnc(C[S+]([O-])c2nc3cc(-n4cccc4)ccc3[nH]2)c1C (stereo not drawn) [Ilaprazole] |  |  | 0.53 µM | 29 µM |  |  |
| COCCCOc1ccnc(C[S+]([O-])c2nc3ccccc3[nH]2)c1C (stereo not drawn) [Rabeprazole] | 7.57 µM |  | 2.13 µM | 12.8 µM |  |  |
| COc1ccc2[nH]c([S+]([O-])Cc3ncc(C)c(OC)c3C)nc2n1 (stereo not drawn) [Tenatoprazole] | 2.16 µM |  | 4.9 µM | 29.2 µM |  |  |
| COc1ccc2nc([S@@+]([O-])Cc3ncc(C)c(OC)c3C)[nH]c2c1 [Esomeprazole] | 3.76 µM |  | 2.15 µM | 18 µM |  | 23 µM |
| Cc1c(OCC(F)(F)F)ccnc1C[S+]([O-])c1nc2ccccc2[nH]1 (stereo not drawn) [Lansoprazole] | 24.6 µM | 6 fold | 5.21 µM | 251 µM |  |  |
| COC(=O)C1=C(C#N)NC(C)=C(C(=O)OC(C)C)C1c1cccc([N+](=O)[O-])c1 (stereo not drawn) [nilvadipine] | ~100 µM |  |  |  | more than 50% |  |
